In US12268683B2, “Compounds and methods for synergistic activation of M channels” (THE REGENTS OF THE UNIVERSITY OF CALIFORNIA, priority 2018, dated 2025):

How the values were obtained:
[1] = molecular target: KCNQ1 (Homo sapiens, UniProt P51787); assay: TEVC of homomeric KCNQ1 expressed in Xenopus oocytes; assay type: cell-based
Protocol: Oocytes were placed in a small-volume oocyte bath (Warner) and viewed with a dissection microscope. Chemicals were sourced from Sigma. Bath solution was (in mM): 96 NaCl, 4 KCl, 1 MgCl2, 1 CaCl2. 10 HEPES (pH 7.6). […] MTX (DMSO), sorbic acid (ethanol), and glutaconic acid (molecular grade H2O) were stored at −20° C. as 1 M stocks. Oleamide was stored as a 1 mM stock in ethanol at 4° C. Palmitic acid was conjugated with bovine serum albumin as a 1 mM stock and stored at −20° C. All compounds were diluted to working concentrations each experimental day. All compounds were introduced to the recording bath via gravity perfusion at a constant flow of 1 ml/min for 3 min prior to recording. Pipettes were of 1-2 MΩ resistance when filled with 3 M KCl. Currents were recorded in response to pulses between −80 and +40 mV at 20 mV intervals, or a single pulse to +40 mV, from a holding potential of −80 mV, to yield current-voltage relationships, current magnitude, and for quantifying activation rate. […]

[2] = tested on: water-injected control oocytes; assay: TEVC of water-injected control oocytes (endogenous current, EM); assay type: cell-based, Xenopus laevis
Protocol: TEVC recording was performed at room temperature with an OC-725C amplifier (Warner Instruments, Hamden, Conn.) and pClamp10.2 software (Molecular Devices, Sunnyvale, Calif.) 3-5 days after cRNA injection as described in the section above. Oocytes were placed in a small-volume oocyte bath (Warner) and viewed with a dissection microscope. Chemicals were sourced from Sigma. Bath solution was (in mM): 96 NaCl, 4 KCl, 1 MgCl2, 1 CaCl2. 10 HEPES (pH 7.6). […] MTX (DMSO), sorbic acid (ethanol), and glutaconic acid (molecular grade H2O) were stored at −20° C. as 1 M stocks. Oleamide was stored as a 1 mM stock in ethanol at 4° C. […] Currents were recorded in response to pulses between −80 and +40 mV at 20 mV intervals, or a single pulse to +40 mV, from a holding potential of −80 mV, to yield current-voltage relationships, current magnitude, and for quantifying activation rate. […]
TEVC recording was performed at room temperature using a OC-725C amplifier (Warner Instruments, Hamden, Conn.) and pClamp8 software (Molecular Devices, Sunnyvale, Calif.) 2-5 days after cRNA injection as described in the section above. […] Currents were recorded in response to pulses between −80 mV and +40 mV at 20 mV intervals, or a single pulse to +40 mV, from a holding potential of −80 mV, to yield current-voltage relationships, current magnitude, and for quantifying activation rate. […]

[3] = molecular target: KCNQ2-W236L/KCNQ3-W265L (Homo sapiens, UniProt O43525+O43526, W236L/W265L); assay: TEVC of double-mutant WL/WL KCNQ2/3 channels; assay type: cell-based
Source text: cRNA transcripts encoding human KCNA1, KCNQ1, KCNQ2, KCNQ3, KCNQ4, or KCNQ5 were generated by in vitro transcription using the T7 polymerase message machine kit (Thermo Fisher Scientific), after vector linearization, from cDNA sub-cloned into plasmids incorporating X. laevis β-globin 5′ and 3′ UTRs flanking the coding region to enhance translation and cRNA stability. cRNA was quantified by spectrophotometry. Mutant cDNAs were generated by site-directed mutagenesis using a QuikChange kit according to manufacturer's protocol (Stratagene, San Diego, Calif.) and corresponding cRNAs prepared as above. Defolliculated stage V and VI X. laevis oocytes (Ecocyte Bioscience, Austin, Tex.) were injected with Kv channel a subunit cRNAs (10 ng total per oocyte). Oocytes were incubated at 16° C. in Barth's saline solution (Ecocyte) containing penicillin and streptomycin, with daily washing, for 3-5 days prior to two-electrode voltage-clamp (TEVC) recording.
TEVC recording was performed at room temperature with an OC-725C amplifier (Warner Instruments, Hamden, Conn.) and pClamp10.2 software (Molecular Devices, Sunnyvale, Calif.) 3-5 days after cRNA injection as described in the section above. Oocytes were placed in a small-volume oocyte bath (Warner) and viewed with a dissection microscope. Chemicals were sourced from Sigma. Bath solution was (in mM): 96 NaCl, 4 KCl, 1 MgCl2, 1 CaCl2. 10 HEPES (pH 7.6). […] Currents were recorded in response to pulses between −80 and +40 mV at 20 mV intervals, or a single pulse to +40 mV, from a holding potential of −80 mV, to yield current-voltage relationships, current magnitude, and for quantifying activation rate. […]
cRNA transcripts encoding human KCNQ2, KCNQ3, KCNQ4, KCNQ5 (Kv7.2-Kv7.5) were generated by in vitro transcription using the T7 polymerase mMessage mMachine kit (Thermo Fisher Scientific), after vector linearization, from cDNA sub-cloned into plasmids incorporating Xenopus laevis β-globin 5′ and 3′ UTRs flanking the coding region to enhance translation and cRNA stability. cRNA was quantified by spectrophotometry. […]

CS(=O)(=O)N(CC(=O)O)c1cccc(F)c1 [3FMSG]
effect on KCNQ1 (in words) [1]: negligible effects

CCCCCCCCC/C=C/C=O [(E)-2-dodecenal]
effect on KCNQ1 (in words) [1]: sensitive

CC(=O)c1c(O)c(C)c(O)c(Cc2c(O)c3c(c(C(=O)/C=C/c4ccccc4)c2O)OC(C)(C)C=C3)c1O [MTX, mallotoxin]
effect on endogenous current or EM of water-injected control oocytes [2]: no effect
reduction of MTX potency (negative shift in voltage dependence) by W/L mutation ([3]; KCNQ2-W236L or KCNQ3-W265L, or both): tenfold

NCC1(CC(=O)O)CCCCC1 [gabapentin, reference compound]
effect on endogenous current or EM of water-injected control oocytes [2]: no effect
augmentation of WL/WL KCNQ2/3 current [3]: ≤ 50%
